Experimental data as given in US20110071204A1, “PERCUTANEOUS ABSORPTION PREPARATION” (KYORIN PHARMACEUTICAL CO., LTD., priority 2005, published 2011).

Legend:
[1] = test system: airway contraction induced by methacholine; assay: Airway contraction measuring method (Konzett & Rossler), methacholine-induced; type: in vivo; conditions: guinea pig
Method: Male Std:Hartley guinea pigs (Japan SLC Inc., week of age at the time of use: 6 weeks of age, from 340.6 to 488.0 g in body weight) were anesthetized with urethane, and a canula was inserted into the trachea. The trachea canula was connected to a quantitative artificial ventilator, and under artificial respiration, a catheter was indwelled in the left jugular vein. Measurement of the airway contraction was carried out by the Konzett & Rossler method. Guinea pigs were subjected to artificial respiration at a ventilation of 4 ml/animal and a ventilation frequency of 70 times/minute. Changes in the ventilation pressure were measured by a transducer (UGO BASILE, BRONCHOSPASM TRANSDUCER 7020) connected to the sub-bypass of the trachea canula. By inserting a catheter into the jugular vein, imidafenacin was administered by continuous intravenous infusion (100 μl/kg/min). After 75 minutes of the start of administration of the agent liquid, methacholine (10 μg/kg) was intravenously administered to induce airway contraction. The airway contraction inhibitory activity was evaluated using peak height of the airway contraction induced by methacholine as the index.
In this connection, the blood concentration measurement was carried out by LC/MS/MS using blood plasma.

[2] = test system: bladder contraction induced by methacholine; type: in vivo; conditions: guinea pig
Source text: Male Std:Hartley guinea pigs (Japan SLC Inc., week of age at the time of use: 6 weeks of age, from 340.6 to 488.0 g in body weight) were anesthetized with urethane. The abdominal region was subjected to median incision, and then both sides of ureters were ligated in order to prevent inflow of urine from the kidney to the bladder. After ligation of the bladder cervix, a catheter for intravesical pressure measurement use was inserted from the bladder apex and fixed by ligation. Thereafter, in order to measure intravesical pressure, 1 ml of physiological saline was injected into the bladder. Next, a catheter was indwelled in the left jugular vein. The intravesical pressure was measured via an amplifier for strain pressure use (Nihon Kohden Corporation, CARRIER ANPLIFIER AP-601G) by connecting the catheter for intravesical pressure measuring use to a pressure transducer (Nihon Kohden Corporation, LIFE KIT DX-100). By inserting a catheter into the jugular vein, imidafenacin was administered by continuous intravenous infusion (100 μl/kg/min). After 75 minutes of the commencement of administration of the agent liquid, methacholine (10 μg/kg) was intravenously administered to induce bladder contraction. The bladder contraction inhibitory activity was evaluated using peak height of the bladder contraction induced by methacholine as the index. […]

[3] = continuous intravenous infusion, methacholine 10 μg/kg after 75 minutes

- blood concentration at around the ID50 value (airway contraction) ([1]; plasma, LC/MS/MS): about 1 ng/ml
- blood concentration at around the ID50 value (intravesical pressure) ([2]; male, Hartley, in vivo): about 1 ng/ml
SMILES: Cc1nccn1CCC(C(N)=O)(c1ccccc1)c1ccccc1 [imidafenacin, 4-(2-methyl-1-imidazolyl)-2,2-diphenylbutylamide]
- ID50, airway contraction inhibitory activity [1, 3]: 0.061 µg/kg/min
- ID50, bladder contraction inhibitory activity [2, 3]: 0.064 µg/kg/min
